Legend:
[1] = target: T1, IDO (SKOV3 human ovarian adenocarcinoma cells, IFN-γ induced) (Homo sapiens, UniProt P14902); assay: SKOV3 Kynurenine cell based assay; conditions: IDO induced by 500 ng/ml IFN-γ, 500 μM L-tryptophan, 48 hours
T1 construct: IDO expression was induced in the SKOV3 cells by the addition of 500 ng/ml IFN-γ; endogenous in cells; host or cells: SKOV3 human ovarian adenocarcinoma cells, induced with IFN-γ
Outline: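 Kynurenine in the supernatant, detected by Ehrlich's reagent, served as read-out after 48 h at 37° C with or without test compound. SKOV3 cells (40,000/well) were grown in phenol red-free RPMI, 10% FCS, 2 mM L-glutamine, 500 μM L-tryptophan, with 500 ng/ml IFN-γ to induce IDO.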

[2] = target: T2, TDO (A172 human glioblastoma cells) (Homo sapiens, UniProt P48775); assay: A172 Kynurenine cell based assay; conditions: 500 μM L-tryptophan, 48 hours, kynurenine by Erhlich's reagent
T2 construct: This assay utilised cancer cells which expressed either TDO or IDO; endogenous in cells; host or cells: A172 human glioblastoma cells
T2 sequence (P48775 whole entry): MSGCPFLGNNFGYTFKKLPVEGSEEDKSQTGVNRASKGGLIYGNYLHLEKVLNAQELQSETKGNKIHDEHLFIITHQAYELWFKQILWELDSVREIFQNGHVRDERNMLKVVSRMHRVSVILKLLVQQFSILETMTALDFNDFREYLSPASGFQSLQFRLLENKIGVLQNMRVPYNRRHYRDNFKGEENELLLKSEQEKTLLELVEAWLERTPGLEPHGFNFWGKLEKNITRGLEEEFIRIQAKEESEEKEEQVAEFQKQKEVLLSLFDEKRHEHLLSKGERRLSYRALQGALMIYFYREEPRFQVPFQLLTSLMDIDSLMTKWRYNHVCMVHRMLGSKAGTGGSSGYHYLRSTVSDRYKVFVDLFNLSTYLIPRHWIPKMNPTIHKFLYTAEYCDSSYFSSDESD
Outline: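 Kynurenine released into the supernatant was quantified by absorbance at 490 nm after 5 min with Erhlich's reagent. A172 cells were seeded at 30,000/well and exposed to test compound for 48 hours at 37° C. in phenol red-free RPMI containing 500 μM L-tryptophan, 10% FCS and 2 mM L-glutamine.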

[3] = target: Recombinant human IDO (Homo sapiens, UniProt P14902); assay: hIDO biochemical coupled assay; conditions: 45 μM L-tryptophan, coupled with kynurenine formamidase
Sequence of Recombinant human IDO (P14902 whole entry): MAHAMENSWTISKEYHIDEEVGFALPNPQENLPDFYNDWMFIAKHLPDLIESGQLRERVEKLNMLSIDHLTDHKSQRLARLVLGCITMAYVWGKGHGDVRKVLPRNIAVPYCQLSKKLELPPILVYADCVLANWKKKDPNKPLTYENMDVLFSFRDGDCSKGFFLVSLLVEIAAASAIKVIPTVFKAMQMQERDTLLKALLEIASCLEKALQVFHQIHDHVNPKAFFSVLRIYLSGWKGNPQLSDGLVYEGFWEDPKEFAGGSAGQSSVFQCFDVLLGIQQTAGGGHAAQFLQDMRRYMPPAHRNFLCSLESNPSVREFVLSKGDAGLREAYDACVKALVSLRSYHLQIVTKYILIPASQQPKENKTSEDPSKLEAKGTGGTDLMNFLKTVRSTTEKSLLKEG
Outline: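 Recombinant human IDO incubated in 50 mM KPO4 (pH 7.0), 0.5 mM EGTA, 0.5 mM EDTA, 0.05% Triton X100, 20 mM ascorbate, 10 μM methylene blue, 500 U/ml catalase and 50 μg/ml kynurenine formamidase. N-formylkynurenine converted to kynurenine, quantified by fluorescence after Ehrlich's reagent.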

[4] = target: Recombinant human TDO (Homo sapiens, UniProt P48775); assay: hTDO biochemical coupled assay; conditions: 330 μM L-tryptophan, coupled with kynurenine formamidase
Sequence of Recombinant human TDO (P48775 whole entry): as the sequence (P48775 whole entry) above
Procedure: Exemplary compounds of the invention were prepared, and tested to determine their effect as TDO and/or IDO inhibitors. Two different assays were employed: 1. a cell-based assay for detecting the effect of test compounds on kynurenine production in two different cancer cell types. This assay utilised cancer cells which expressed either TDO or IDO and as such was used as a means of testing compound activity at these two enzymes in a cell-based context. 2. a TDO and IDO biochemical coupled assay which utilised recombinantly produced and purified TDO and IDO enzymes in combination with the enzyme formamidase. This coupled enzyme system allowed conversion of N-formylkynurenine produced by TDO or IDO activity to kynurenine which was then quantified by fluorescence following addition of Erhlich's Reagent The protocols for these are set out below.
Recombinant human IDO or TDO was incubated in 50 mM KPO4 (pH 7.0), 0.5 mM EGTA, 0.5 mM EDTA, 0.05% Triton™ X100, 20 mM ascorbate, 10 μM methylene blue, 500 U/ml catalase, 50 μg/ml KynB (kynurenine formamidase). TDO assays were carried out in the presence of 330 μM L-tryptophan, while IDO assays had the addition of 45 μM L-tryptophan. After incubation for 17 minutes at room temperature the reactions were stopped by the addition of Erhlich's reagent and incubated at room temperature for 5 minutes before the fluorescence was read (Ex475, Em530).

T1 sequence (P14902 whole entry): as the sequence (P14902 whole entry) above

Compound	SKOV3 Kynurenine cell based assay pIC50 [1]	A172 Kynurenine cell based assay pIC50 [2]	hIDO biocehmical assay pIC50 [3]	hTDO biochemical assay pIC50 [4]
Cc1cccc2c(C3CCN(C(=O)c4ccc(F)c(C(F)(F)F)c4)CC3)c[nH]c12 [Compound 54]	+ (+ = pIC50 4.00-4.99)	+ (+ = pIC50 4.00-4.99)	+− (+− = pIC50 <4.00)	+− (+− = pIC50 <4.00)
O=C(CO)N1CCC(c2c[nH]c3ccccc23)CC1 [Compound 67]	+− (+− = pIC50 <4.00)	+ (+ = pIC50 4.00-4.99)	+− (+− = pIC50 <4.00)	+− (+− = pIC50 <4.00)
CCNC(=O)N1CCC(c2c[nH]c3ccccc23)CC1 [Compound 68]	+− (+− = pIC50 <4.00)	+ (+ = pIC50 4.00-4.99)	+− (+− = pIC50 <4.00)	++ (++ = pIC50 5.00-5.99)
COc1ccc2[nH]cc(C3=CCN(C(C)=O)CC3)c2c1 [Compound 70]	+− (+− = pIC50 <4.00)	+− (+− = pIC50 <4.00)	+− (+− = pIC50 <4.00)	+ (+ = pIC50 4.00-4.99)
O=C(C1CC1)N1CCC(c2c[nH]c3ccccc23)CC1 [Compound 71]	+− (+− = pIC50 <4.00)	+ (+ = pIC50 4.00-4.99)	+− (+− = pIC50 <4.00)	+− (+− = pIC50 <4.00)
CS(=O)(=O)N1CC=C(c2c[nH]c3cc(Cl)ccc23)CC1 [Compound 76]	+ (+ = pIC50 4.00-4.99)	++ (++ = pIC50 5.00-5.99)	+− (+− = pIC50 <4.00)	++ (++ = pIC50 5.00-5.99)
CC(=O)N1CC=C(c2c[nH]c3cccc(F)c23)CC1 [Compound 77]	+ (+ = pIC50 4.00-4.99)	+ (+ = pIC50 4.00-4.99)	+− (+− = pIC50 <4.00)	+ (+ = pIC50 4.00-4.99)
CS(=O)(=O)N1CC=C(c2c[nH]c3cccc(F)c23)CC1 [Compound 78]	+− (+− = pIC50 <4.00)	+ (+ = pIC50 4.00-4.99)	+− (+− = pIC50 <4.00)	+ (+ = pIC50 4.00-4.99)
CC(=O)N1CC=C(c2c[nH]c3cc(Cl)ccc23)CC1 [Compound 79]	+ (+ = pIC50 4.00-4.99)	++ (++ = pIC50 5.00-5.99)	+− (+− = pIC50 <4.00)	++ (++ = pIC50 5.00-5.99)
CN(C)CC(=O)N1CCC(c2c[nH]c3ccccc23)CC1 [Compound 81]	+− (+− = pIC50 <4.00)	+− (+− = pIC50 <4.00)	+− (+− = pIC50 <4.00)	+ (+ = pIC50 4.00-4.99)
CCCC(=O)N1CCC(c2c[nH]c3ccccc23)CC1 [Compound 83]	+− (+− = pIC50 <4.00)	+ (+ = pIC50 4.00-4.99)	+− (+− = pIC50 <4.00)	+− (+− = pIC50 <4.00)
CC(=O)N1CC=C(c2c[nH]c3ccc(F)cc23)CC1 [Compound 86]	+ (+ = pIC50 4.00-4.99)	++ (++ = pIC50 5.00-5.99)	+− (+− = pIC50 <4.00)	+++ (+++ = pIC50 ≥6.00)
COc1cccc2c(C3=CCN(C(C)=O)CC3)c[nH]c12 [Compound 88]	+− (+− = pIC50 <4.00)	+ (+ = pIC50 4.00-4.99)	+− (+− = pIC50 <4.00)	++ (++ = pIC50 5.00-5.99)

Second part, the compound after the results:

SKOV3 Kynurenine cell based assay pIC50 [1]	A172 Kynurenine cell based assay pIC50 [2]	hIDO biocehmical assay pIC50 [3]	hTDO biochemical assay pIC50 [4]	Compound
++ (++ = pIC50 5.00-5.99)	+− (+− = pIC50 <4.00)	+− (+− = pIC50 <4.00)	+− (+− = pIC50 <4.00)	COc1ccc2[nH]cc(C3CCN(S(=O)(=O)c4cc(C(F)(F)F)ccc4C(F)(F)F)CC3)c2c1 [Compound 55]
++ (++ = pIC50 5.00-5.99)	+− (+− = pIC50 <4.00)	+− (+− = pIC50 <4.00)	+− (+− = pIC50 <4.00)	COC(=O)c1ccccc1S(=O)(=O)N1CCC(c2c[nH]c3ccc(C#N)cc23)CC1 [Compound 56]
+ (+ = pIC50 4.00-4.99)	+ (+ = pIC50 4.00-4.99)	+− (+− = pIC50 <4.00)	+− (+− = pIC50 <4.00)	O=S(=O)(c1cccc(OC(F)(F)F)c1)N1CCC(c2c[nH]c3ccccc23)CC1 [Compound 57]
+ (+ = pIC50 4.00-4.99)	+ (+ = pIC50 4.00-4.99)	+− (+− = pIC50 <4.00)	+− (+− = pIC50 <4.00)	Cc1ccc2[nH]cc(C3CCN(S(=O)(=O)c4ccc(C(C)(C)C)cc4)CC3)c2c1 [Compound 58]
+ (+ = pIC50 4.00-4.99)	+ (+ = pIC50 4.00-4.99)	+− (+− = pIC50 <4.00)	+− (+− = pIC50 <4.00)	Cc1cccc2c(C3CCN(C(=O)c4ccccc4OC(F)(F)F)CC3)c[nH]c12 [Compound 59]
+ (+ = pIC50 4.00-4.99)	+ (+ = pIC50 4.00-4.99)	+− (+− = pIC50 <4.00)	+− (+− = pIC50 <4.00)	CCOC(=O)N1CCC(c2c[nH]c3ccccc23)CC1 [Compound 66]
+− (+− = pIC50 <4.00)	++ (++ = pIC50 5.00-5.99)	+− (+− = pIC50 <4.00)	+ (+ = pIC50 4.00-4.99)	CCCS(=O)(=O)N1CCC(c2c[nH]c3ccccc23)CC1 [Compound 69]
+− (+− = pIC50 <4.00)	+ (+ = pIC50 4.00-4.99)	+− (+− = pIC50 <4.00)	+− (+− = pIC50 <4.00)	CC(C)S(=O)(=O)N1CCC(c2c[nH]c3ccccc23)CC1 [Compound 73]
+− (+− = pIC50 <4.00)	++ (++ = pIC50 5.00-5.99)	+− (+− = pIC50 <4.00)	+ (+ = pIC50 4.00-4.99)	COCCS(=O)(=O)N1CCC(c2c[nH]c3ccccc23)CC1 [Compound 74]
+− (+− = pIC50 <4.00)	++ (++ = pIC50 5.00-5.99)	+− (+− = pIC50 <4.00)	+ (+ = pIC50 4.00-4.99)	O=S(=O)(C1CC1)N1CCC(c2c[nH]c3ccccc23)CC1 [Compound 75]
+− (+− = pIC50 <4.00)	+ (+ = pIC50 4.00-4.99)	+− (+− = pIC50 <4.00)	+− (+− = pIC50 <4.00)	O=C(c1ccccc1)N1CCC(c2c[nH]c3ccccc23)CC1 [Compound 82]
+− (+− = pIC50 <4.00)	+ (+ = pIC50 4.00-4.99)	+− (+− = pIC50 <4.00)	+− (+− = pIC50 <4.00)	COCC(=O)N1CCC(c2c[nH]c3ccccc23)CC1 [Compound 84]
++ (++ = pIC50 5.00-5.99)	++ (++ = pIC50 5.00-5.99)	+− (+− = pIC50 <4.00)	+− (+− = pIC50 <4.00)	Cc1ccc2[nH]cc(C3CCN(S(C)(=O)=O)CC3)c2c1 [Compound 85]
